{
  "source": "patent US20090142395A1",
  "about": "“DEFERASIROX PHARMACEUTICAL COMPOSITIONS” (priority 2007, published 2009)",
  "experiment": "Flow properties of co-milled blends, assessed visually",
  "type": "physicochemical",
  "conditions": "visual score between 1 and 6, where 6 is a free-flowing powder",
  "description": "Flow properties were assessed visually, and given a score between 1 and 6, where 6 is a free-flowing powder.",
  "data": [
    {"smiles": "O=C(O)c1ccc(-n2nc(-c3ccccc3O)nc2-c2ccccc2O)cc1", "note": "[Deferasirox raw material, 4-[3,5-bis(2-hydroxyphenyl)-[1,2,4]triazol-1-yl]benzoic acid]", "values": [
      {"measurement": "Flow score", "result": 1}
    ]}
  ]
}
